Measured values published in patent US4421760A, “β-Lactam antibiotic, its preparation and use” (Beecham Group Limited, priority 1980, dated 1983).
In brackets after ≈: the same amount, converted by molar mass. Like-named read-outs stand apart in the source and are kept apart here.

Legend:
[1] = biological target: Klebsiella aerogenes E70 β-Lactamase; assay: β-Lactamase inhibitory activity; format: biochemical
Procedure: (§1) β-Lactamase Inhibitory Activity of MM 27696 sodium salt
(§2) b = without preincubation

[2] = biological target: Enterobacter cloacae P99 β-Lactamase (Enterobacter cloacae, UniProt P05364); assay: β-Lactamase inhibitory activity; format: biochemical; details: read-out: β-Lactamase Inhibitory Activity I50 (converted)
Chain of Enterobacter cloacae P99 β-Lactamase (P05364 21-381): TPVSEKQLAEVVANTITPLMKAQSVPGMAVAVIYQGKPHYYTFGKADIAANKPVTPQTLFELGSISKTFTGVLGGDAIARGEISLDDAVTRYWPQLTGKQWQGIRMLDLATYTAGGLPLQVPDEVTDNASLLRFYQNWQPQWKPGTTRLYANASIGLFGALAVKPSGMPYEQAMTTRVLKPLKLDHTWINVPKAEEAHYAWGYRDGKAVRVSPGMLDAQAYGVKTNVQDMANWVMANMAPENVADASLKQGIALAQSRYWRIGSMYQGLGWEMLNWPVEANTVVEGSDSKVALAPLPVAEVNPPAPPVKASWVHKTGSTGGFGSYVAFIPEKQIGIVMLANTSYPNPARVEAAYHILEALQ
Procedure: as §1, §2

[3] = biological target: S. aureus Russell β-Lactamase (Staphylococcus aureus, UniProt P00807); assay: β-Lactamase inhibitory activity; format: biochemical; details: read-out: β-Lactamase Inhibitory Activity I50 (converted)
Chain of S. aureus Russell β-Lactamase (P00807 25-281): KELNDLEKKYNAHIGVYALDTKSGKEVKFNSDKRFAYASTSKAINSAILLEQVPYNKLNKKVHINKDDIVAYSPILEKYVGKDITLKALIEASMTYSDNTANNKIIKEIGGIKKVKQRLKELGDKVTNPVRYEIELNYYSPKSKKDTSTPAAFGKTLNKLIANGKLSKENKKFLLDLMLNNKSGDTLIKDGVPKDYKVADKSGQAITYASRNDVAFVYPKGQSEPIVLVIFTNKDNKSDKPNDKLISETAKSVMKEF
Procedure: as §1, §2

E. coli JT4 β-Lactamase = E. coli JT4 β-Lactamase (Escherichia coli, UniProt P62593); assay: β-Lactamase inhibitory activity; format: biochemical; details: read-out: β-Lactamase Inhibitory Activity I50 (converted)
Chain of E. coli JT4 β-Lactamase (P62593 24-286 limits assumed): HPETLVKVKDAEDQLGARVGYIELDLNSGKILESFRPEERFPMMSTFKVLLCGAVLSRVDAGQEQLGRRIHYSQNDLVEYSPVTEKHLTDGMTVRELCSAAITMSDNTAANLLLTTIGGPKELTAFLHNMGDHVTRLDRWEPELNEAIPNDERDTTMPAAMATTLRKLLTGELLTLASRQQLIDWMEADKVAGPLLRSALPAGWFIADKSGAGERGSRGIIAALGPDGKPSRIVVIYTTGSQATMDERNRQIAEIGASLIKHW
Procedure: as §1, §2

Klebsiella aerogenes A = assay: Antibacterial activity, microtitre method; format: cell-based
From the text: (§3) The antibacterial activity of the preparation of MM 27696 described in the example has been determined by the microtitre method and is reported in The Table.
(§4) Antibacterial Activity of MM 27696 sodium salt determined
(§5) by the Microtitre Method

Streptococcus faecalis I = assay: Antibacterial activity, microtitre method; format: cell-based; details: Enterococcus faecalis
From the text: as §3, §4, §5

Pseudomonas aeruginosa A = assay: Antibacterial activity, microtitre method; format: cell-based
From the text: as §3, §4, §5

Proteus morganii I580 = assay: Antibacterial activity, microtitre method; format: cell-based; details: Morganella morganii
From the text: as §3, §4, §5

Proteus rettgeri WM16 = assay: Antibacterial activity, microtitre method; format: cell-based; details: Providencia rettgeri
From the text: as §3, §4, §5

Enterobacter cloacae N1 = assay: Antibacterial activity, microtitre method; format: cell-based
From the text: as §3, §4, §5

[4] = tested on: Staphylococcus aureus Russell; assay: Antibacterial activity, microtitre method; format: cell-based
From the text: as §3, §4, §5

Bacillus subtilis A = assay: Antibacterial activity, microtitre method; format: cell-based
From the text: as §3, §4, §5

Proteus vulgaris W091 = assay: Antibacterial activity, microtitre method; format: cell-based
From the text: as §3, §4, §5

E. coli ESS = assay: Antibacterial activity, microtitre method; format: cell-based; details: Escherichia coli
From the text: as §3, §4, §5

[5] = tested on: Staphylococcus aureus Oxford; assay: Antibacterial activity, microtitre method; format: cell-based
From the text: as §3, §4, §5

Proteus mirabilis C977 = assay: Antibacterial activity, microtitre method; format: cell-based
From the text: as §3, §4, §5

[6] = tested on: Streptococcus pneumoniae CN33; assay: Antibacterial activity, microtitre method; format: cell-based
From the text: as §3, §4, §5

Shigella sonnei MB 11967 = assay: Antibacterial activity, microtitre method; format: cell-based; details: MB11967
From the text: as §3, §4, §5

Escherichia coli 0111 = assay: Antibacterial activity, microtitre method; format: cell-based
From the text: as §3, §4, §5

Serratia marcescens US20 = assay: Antibacterial activity, microtitre method; format: cell-based
From the text: as §3, §4, §5

[7] = tested on: Streptococcus pyogenes CN10; assay: Antibacterial activity, microtitre method; format: cell-based
From the text: as §3, §4, §5

[8] = tested on: Salmonella typhimurium CT10; assay: Antibacterial activity, microtitre method; format: cell-based; details: Salmonella enterica
From the text: as §3, §4, §5

Citrobacter freundii E8 = assay: Antibacterial activity, microtitre method; format: cell-based
From the text: as §3, §4, §5

Escherichia coli JT 39 = assay: Antibacterial activity, microtitre method; format: cell-based; details: JT39
From the text: as §3, §4, §5

[9] = tested on: Staphylococcus aureus 1517; assay: Antibacterial activity, microtitre method; format: cell-based
From the text: as §3, §4, §5

CCC(=O)N/C=C/SC1=C(C(=O)O)N2C(=O)[C@@H]([C@H](C)OS(=O)(=O)O)[C@H]2C1 [MM 27696]
β-Lactamase Inhibitory Activity I50 ([1]; a = with preincubation): 0.003 µg/mL | β-Lactamase Inhibitory Activity I50 ([1]; b = without preincubation): 0.4 µg/mL | IC50 ([2]; a = with preincubation): 4.92 nM | IC50 ([2]; b = without preincubation): 615 nM | IC50 ([3]; a = with preincubation): 73.8 nM | IC50 ([3]; b = without preincubation): > 123000 nM | IC50 (E. coli JT4 β-Lactamase; a = with preincubation): 24.6 nM | IC50 (E. coli JT4 β-Lactamase; b = without preincubation): 984 nM | MIC (Klebsiella aerogenes A): 0.4 µg/mL (≈ 0.984 µM) | MIC (Streptococcus faecalis I): 12.5 µg/mL (≈ 30.8 µM) | MIC (Pseudomonas aeruginosa A): 50 µg/mL (≈ 123 µM) | MIC (Proteus morganii I580): 0.2 µg/mL (≈ 0.492 µM) | MIC (Proteus rettgeri WM16): 0.4 µg/mL (≈ 0.984 µM) | MIC (Enterobacter cloacae N1): 0.2 µg/mL (≈ 0.492 µM) | MIC [4]: 0.8 µg/mL (≈ 1.97 µM) | MIC (Bacillus subtilis A): < 0.1 µg/mL | MIC (Proteus vulgaris W091): 0.4 µg/mL (≈ 0.984 µM) | MIC (E. coli ESS): < 0.1 µg/mL | MIC [5]: 0.4 µg/mL (≈ 0.984 µM) | MIC (Proteus mirabilis C977): < 0.1 µg/mL | MIC [6]: < 0.1 µg/mL | MIC (Shigella sonnei MB 11967): < 0.1 µg/mL | MIC (Escherichia coli 0111): 0.8 µg/mL (≈ 1.97 µM) | MIC (Serratia marcescens US20): 6.2 µg/mL (≈ 15.3 µM) | MIC [7]: < 0.1 µg/mL | MIC [8]: 0.2 µg/mL (≈ 0.492 µM) | MIC (Citrobacter freundii E8): 3.1 µg/mL (≈ 7.63 µM) | MIC (Escherichia coli JT 39): 0.2 µg/mL (≈ 0.492 µM) | MIC [9]: 100 µg/mL (≈ 246 µM)
